We go through eight compounds from publication PMC10526139, “Molecular and Pharmacokinetic Aspects of the Acetylcholinesterase-Inhibitory Potential of the Oleanane-Type Triterpenes and Their Glycosides” (Biomolecules, 2023).

T1 sequence (O42275 24-633): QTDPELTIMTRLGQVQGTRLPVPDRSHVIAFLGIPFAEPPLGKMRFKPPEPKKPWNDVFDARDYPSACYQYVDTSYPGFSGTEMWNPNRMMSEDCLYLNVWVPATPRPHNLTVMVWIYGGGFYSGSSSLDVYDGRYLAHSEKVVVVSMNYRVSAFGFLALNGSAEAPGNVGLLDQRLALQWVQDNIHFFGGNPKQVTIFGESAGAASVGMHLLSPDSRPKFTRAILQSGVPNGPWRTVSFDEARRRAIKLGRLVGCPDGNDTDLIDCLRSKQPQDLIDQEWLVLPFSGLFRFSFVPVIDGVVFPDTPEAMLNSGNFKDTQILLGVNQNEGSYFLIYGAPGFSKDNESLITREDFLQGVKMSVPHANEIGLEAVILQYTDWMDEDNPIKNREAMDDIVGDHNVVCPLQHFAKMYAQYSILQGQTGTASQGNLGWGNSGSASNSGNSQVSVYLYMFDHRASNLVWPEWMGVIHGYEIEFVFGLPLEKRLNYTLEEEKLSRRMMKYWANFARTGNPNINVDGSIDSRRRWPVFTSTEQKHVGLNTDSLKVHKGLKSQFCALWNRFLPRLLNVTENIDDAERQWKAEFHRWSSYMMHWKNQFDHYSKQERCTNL

The subject of one test is AChE.
Assay: not given
The conditions noted are these: AChE inhibition; cited from earlier work.
In the case of `C[C@H]1[C@H](C)CC[C@]2(C(=O)O)CC[C@]3(C)C(=CC[C@@H]4[C@@]5(C)C[C@@H](O)[C@H](O)[C@@](C)(CO)[C@@H]5CC[C@]43C)[C@H]12` [asiatic acid], the IC50 is 15.05 ± 0.05 µM. On to `COc1ccc2c3c1O[C@H]1C[C@@H](O)C=C[C@@]31CCN(C)C2` [galantamine], for which the IC50 was […].

Another test has as its target T1, AChE from electric eel type VI-S (Electrophorus electricus, UniProt O42275).
T1 construct: purchased Sigma Aldrich
Briefly: TLC-bioautography assay towards AChE inhibition. It counts as biochemical.
Settings: not given
As to the method: Six standards of oleanane-type triterpenes: arjunic acid, arjunolic acid, arjungenin, arjunglucoside I, sericic acid and arjunetin—purchased from Sigma Aldrich (St. Louis, MO, USA)—were prepared at the concentration of 1 mg/mL in double-distilled water: methanol (50:50 v/v) and they were applied separately at the surface of the aluminum normal phase 10 cm × 10 cm TLC plate (Silica gel 60 F254, Merck, Darmstadt, Germany) with an autosampler (Camag, Muttenz, Switzerland) as the 6 mm zones, distant from one another by 1.5 cm horizontally and 2 cm vertically. Every reference solution was applied as 4, 6, 8 and 10 µL volume bands on three TLC plates.
The TLC plates were later subjected to the enzymatic assay according to the previously published protocol, with some modifications.
As the TLC plate was not developed in a TLC solvent system but was used directly in the TLC bioautographic assay, the authors modified the previously published protocol and sprayed the TLC with the substrate (2-naphtyl acetate; Sigma Aldrich, St. Louis, […], USA) dissolved in distilled water at the quantity of 30 mg/20 mL. The TLC was dried in cold air and later the solution of the AChE enzyme (AChE from electric eel type VI-S, Sigma Aldrich, St. Louis, […], USA) dissolved in the aqueous solution of Tris-HCl buffer (pH 7.8; Sigma Aldrich, St. Louis, […], USA) with […] (500 mg/100 mL, Sigma Aldrich, St. Louis, […], USA) at the quantity of 3 U/mL was sprayed on the TLC plate and incubated at the temperature of 37 °C for the following 20 min in a humid incubator. In the next step, the Fast Blue B (Sigma Aldrich, St. Louis, […], USA) solution (0.615 mg/mL) was sprayed on the plate and visualized active zones as white spots against the violet background. The area of the discolored zones corresponded to the inhibitory strength of the respective zones.
Finally, the TLC plate was dried in the air and analyzed by a Camag TLC visualizer (Camag, Muttenz, Switzerland) under visible light. The peak areas of the discolored zones were automatically calculated by the WinCats program (version 1.4, Camag, Muttenz, Switzerland) and their size was compared to calculate the IC50 values that corresponded to the concentration of the standard giving the half maximum inhibition of the AChE enzyme.
Compound `CC1(C)CC[C@]2(C(=O)O[C@@H]3O[C@H](CO)[C@@H](O)[C@H](O)[C@H]3O)CC[C@]3(C)C(=CC[C@@H]4[C@@]5(C)C[C@@H](O)[C@H](O)C(C)(C)[C@@H]5CC[C@]43C)[C@@H]2[C@@H]1O` [Arjunetin] gave an IC50 of 18.8 µM. Turning to `CC1(C)CC[C@]2(C(=O)O)CC[C@]3(C)C(=CC[C@@H]4[C@@]5(C)C[C@@H](O)[C@H](O)[C@@](C)(CO)[C@@H]5CC[C@]43C)[C@@H]2[C@@H]1O` [Arjungenin], the IC50 was 19.5 µM. The same measure, in the same setting: then `CC1(C)CC[C@]2(C(=O)O[C@@H]3O[C@H](CO)[C@@H](O)[C@H](O)[C@H]3O)CC[C@]3(C)C(=CC[C@@H]4[C@@]5(C)C[C@@H](O)[C@H](O)[C@@](C)(CO)[C@@H]5CC[C@]43C)[C@@H]2[C@@H]1O` [Arjunglucoside I], with 13.2 µM. `CC1(C)CC[C@]2(C(=O)O)CC[C@]3(C)C(=CC[C@@H]4[C@@]5(C)C[C@@H](O)[C@H](O)C(C)(C)[C@@H]5CC[C@]43C)[C@@H]2[C@@H]1O` [Arjunic acid] had an IC50 of 20.7 µM. `CC1(C)CC[C@]2(C(=O)O)CC[C@]3(C)C(=CC[C@@H]4[C@@]5(C)C[C@@H](O)[C@H](O)[C@@](C)(CO)[C@@H]5CC[C@]43C)[C@@H]2C1` [Arjunolic acid] showed an IC50 of 16.2 µM. Still for that read-out and setting: then `CC1(C)CC[C@]2(C(=O)O)CC[C@]3(C)C(=CC[C@@H]4[C@@]5(C)C[C@@H](O)[C@H](O)[C@](C)(CO)[C@@H]5CC[C@]43C)[C@@H]2[C@@H]1O` [Sericic acid], with 16.4 µM.

As a reminder, the IC50 is the concentration that gives 50% inhibition.
